Experimental data: ChEMBL document CHEMBL1144861, “Synthesis and biological activities of novel 4"-alkylidene avermectin derivatives” (2003)
Converted amounts (≈) assume the structure as drawn.

Experiments:
Artemia salina = experiment: In vitro inhibitory activity required against Artemia salina; assay type: functional
Caenorhabditis elegans = experiment: In vitro inhibitory activity required against Caenorhabditis elegans.; assay type: functional

Q: How did the MIC (Artemia salina) turn out when `C=CCOC(=O)/C=C1/[C@H](C)O[C@@H](O[Si](C)(C)C(C)(C)C)C[C@@H]1OC` was run?
A: Its MIC is 0.002 µg/mL (≈ 0.00561 µM).

Q: What about the MIC (Caenorhabditis elegans) of the same compound?
A: Its MIC is 0.01 µg/mL (≈ 0.028 µM).

Q: `CO[C@H]1C[C@H](O[Si](C)(C)C(C)(C)C)O[C@@H](C)/C1=C/C#N` was tested. Which MIC (Artemia salina) did it give?
A: Its MIC is 0.0005 µg/mL (≈ 0.00168 µM).

Q: And the MIC (Caenorhabditis elegans)?
A: Its MIC is 0.0005 µg/mL (≈ 0.00168 µM).

Q: For `CO[C@H]1C[C@H](O[Si](C)(C)C(C)(C)C)O[C@@H](C)/C1=C/CN1CCOCC1`, which MIC (Artemia salina) is on record?
A: The MIC was 0.01 µg/mL (≈ 0.0269 µM).

Q: What about the MIC (Caenorhabditis elegans) of the same compound?
A: The MIC was 0.01 µg/mL (≈ 0.0269 µM).

Q: How did the MIC (Artemia salina) turn out when `CO[C@H]1C[C@H](O[Si](C)(C)C(C)(C)C)O[C@@H](C)/C1=C/C(=O)O` was run?
A: The MIC was 0.002 µg/mL (≈ 0.00632 µM).

Q: And the MIC (Caenorhabditis elegans)?
A: The MIC was 0.01 µg/mL (≈ 0.0316 µM).

Q: With `CO[C@H]1C[C@H](O[Si](C)(C)C(C)(C)C)O[C@@H](C)/C1=C\C#N` as the compound, how does the MIC (Artemia salina) read?
A: The MIC was 0.002 µg/mL (≈ 0.00672 µM).

Q: What about the MIC (Caenorhabditis elegans) of the same compound?
A: Its MIC is 0.002 µg/mL (≈ 0.00672 µM).

Q: How did the MIC (Artemia salina) turn out when `CO[C@H]1C[C@H](O[Si](C)(C)C(C)(C)C)O[C@@H](C)/C1=C/CN1CCNCC1` was run?
A: The MIC was 0.002 µg/mL (≈ 0.0054 µM).

Q: And the MIC (Caenorhabditis elegans)?
A: Its MIC is 0.01 µg/mL (≈ 0.027 µM).

Q: What does the source list for `CO[C@H]1C[C@H](O[Si](C)(C)C(C)(C)C)O[C@@H](C)/C1=C/CO`?
A: MIC (Artemia salina): 0.01 µg/mL (≈ 0.0331 µM); MIC (Caenorhabditis elegans): 0.01 µg/mL (≈ 0.0331 µM)

Q: `CO[C@H]1C[C@H](O[Si](C)(C)C(C)(C)C)O[C@@H](C)/C1=C/C(=O)N1CCCCC1` was tested. Which MIC (Artemia salina) did it give?
A: The MIC was 0.002 µg/mL (≈ 0.00521 µM).

Q: What about the MIC (Caenorhabditis elegans) of the same compound?
A: The MIC was 0.01 µg/mL (≈ 0.0261 µM).

Q: Which results are given for `CO/N=C/C=C1\[C@H](C)O[C@@H](O[Si](C)(C)C(C)(C)C)C[C@@H]1OC`?
A: MIC (Artemia salina): 0.01 µg/mL (≈ 0.0303 µM); MIC (Caenorhabditis elegans): 0.01 µg/mL (≈ 0.0303 µM)

Q: With `CO[C@H]1C[C@H](O[Si](C)(C)C(C)(C)C)O[C@@H](C)/C1=C\COC(=O)c1ccncc1` as the compound, how does the MIC (Artemia salina) read?
A: Its MIC is 0.01 µg/mL (≈ 0.0245 µM).

Q: What about the MIC (Caenorhabditis elegans) of the same compound?
A: The MIC was 0.05 µg/mL (≈ 0.123 µM).

Q: What does the source list for `CO[C@H]1C[C@H](O[Si](C)(C)C(C)(C)C)O[C@@H](C)/C1=C/CCl`?
A: MIC (Artemia salina): 0.01 µg/mL (≈ 0.0312 µM); MIC (Caenorhabditis elegans): 0.01 µg/mL (≈ 0.0312 µM)

Q: With IVERMECTIN as the compound, how does the MIC (Artemia salina) read?
A: Its MIC is 0.002 µg/mL.

Q: And the MIC (Caenorhabditis elegans)?
A: The MIC was 0.002 µg/mL.

Q: How did the MIC (Artemia salina) turn out when `CO[C@H]1C[C@H](O[Si](C)(C)C(C)(C)C)O[C@@H](C)/C1=C/C=O` was run?
A: Its MIC is 0.01 µg/mL (≈ 0.0333 µM).

Q: And the MIC (Caenorhabditis elegans)?
A: The MIC was 0.01 µg/mL (≈ 0.0333 µM).

Q: Which MIC (Artemia salina) does the source give for `CO[C@H]1C[C@H](O[Si](C)(C)C(C)(C)C)O[C@@H](C)/C1=C/CN1CCCCC1` here?
A: The MIC was 0.01 µg/mL (≈ 0.0271 µM).

Q: What about the MIC (Caenorhabditis elegans) of the same compound?
A: The MIC was 0.05 µg/mL (≈ 0.135 µM).

Q: How did the MIC (Artemia salina) turn out when `CC[C@H](C)[C@H]1O[C@]2(C=C[C@@H]1C)C[C@@H]1C[C@@H](C/C=C(\C)[C@@H](O[C@H]3C[C@H](OC)[C@@H](O[C@H]4C[C@H](OC)[C@@H](O)[C@H](C)O4)[C@H](C)O3)[C@@H](C)/C=C/C=C3\CO[C@@H]4[C@H](O)C(C)=C[C@@H](C(=O)O1)[C@]34O)O2` [ABAMECTIN COMPONENT B1A] was run?
A: The MIC was 0.0005 µg/mL (≈ 0.000573 µM).

Q: And the MIC (Caenorhabditis elegans)?
A: The MIC was 0.002 µg/mL (≈ 0.00229 µM).

Q: Which results are given for `CO[C@H]1C[C@H](O[Si](C)(C)C(C)(C)C)O[C@@H](C)/C1=C\COC(=O)c1cccnc1`?
A: MIC (Artemia salina): 0.002 µg/mL (≈ 0.00491 µM); MIC (Caenorhabditis elegans): 0.01 µg/mL (≈ 0.0245 µM)

Q: `CCOC(=O)/C=C1/[C@H](C)O[C@@H](O[Si](C)(C)C(C)(C)C)C[C@@H]1OC` was tested. Which MIC (Artemia salina) did it give?
A: Its MIC is 0.01 µg/mL (≈ 0.029 µM).

Q: What about the MIC (Caenorhabditis elegans) of the same compound?
A: The MIC was 0.01 µg/mL (≈ 0.029 µM).

Q: How did the MIC (Artemia salina) turn out when `CO[C@H]1C[C@H](O[Si](C)(C)C(C)(C)C)O[C@@H](C)/C1=C/C(=O)N1CCOCC1` was run?
A: Its MIC is 0.01 µg/mL (≈ 0.0259 µM).

Q: And the MIC (Caenorhabditis elegans)?
A: The MIC was 0.01 µg/mL (≈ 0.0259 µM).

Q: `CO[C@H]1C[C@H](O[Si](C)(C)C(C)(C)C)O[C@@H](C)/C1=C\C=N\O` was tested. Which MIC (Artemia salina) did it give?
A: Its MIC is 0.002 µg/mL (≈ 0.00634 µM).

Q: What about the MIC (Caenorhabditis elegans) of the same compound?
A: Its MIC is 0.01 µg/mL (≈ 0.0317 µM).

Q: Which MIC (Artemia salina) does the source give for `CO[C@H]1C[C@H](O[Si](C)(C)C(C)(C)C)O[C@@H](C)/C1=C\C(=O)O` here?
A: The MIC was 0.002 µg/mL (≈ 0.00632 µM).

Q: What about the MIC (Caenorhabditis elegans) of the same compound?
A: Its MIC is 0.01 µg/mL (≈ 0.0316 µM).

Q: With `CO[C@H]1C[C@H](O[Si](C)(C)C(C)(C)C)O[C@@H](C)/C1=C/C(=O)N1CCNCC1` as the compound, how does the MIC (Artemia salina) read?
A: Its MIC is 0.002 µg/mL (≈ 0.0052 µM).

Q: What about the MIC (Caenorhabditis elegans) of the same compound?
A: Its MIC is 0.01 µg/mL (≈ 0.026 µM).
